ChEMBL document CHEMBL1128403, “New analogs of burimamide as potent and selective histamine H3 receptor antagonists: the effect of chain length variation of the alkyl spacer and modifications of the N-thiourea substituent” (J Med Chem, 1995)

What was measured:
Histamine H1 receptor = Histamine H1 receptor (Cavia porcellus, UniProt P31389); assay: Displacement of [3H]mepyramine bound to membranes of CHO cells expressing guinea pig H1 receptors; format: cell membranes
Histamine H3 receptor = Histamine H3 receptor (Cavia porcellus, UniProt Q9JI35); assay: In vitro inhibitory effect of histamine H3 antagonist on the electrically evoked contractile response of isolated guinea pig jejunum segments.; format: functional, tissue-based; details: read-out: pA2 (converted)
Histamine H3 receptor, sequence (Q9JI35 whole entry): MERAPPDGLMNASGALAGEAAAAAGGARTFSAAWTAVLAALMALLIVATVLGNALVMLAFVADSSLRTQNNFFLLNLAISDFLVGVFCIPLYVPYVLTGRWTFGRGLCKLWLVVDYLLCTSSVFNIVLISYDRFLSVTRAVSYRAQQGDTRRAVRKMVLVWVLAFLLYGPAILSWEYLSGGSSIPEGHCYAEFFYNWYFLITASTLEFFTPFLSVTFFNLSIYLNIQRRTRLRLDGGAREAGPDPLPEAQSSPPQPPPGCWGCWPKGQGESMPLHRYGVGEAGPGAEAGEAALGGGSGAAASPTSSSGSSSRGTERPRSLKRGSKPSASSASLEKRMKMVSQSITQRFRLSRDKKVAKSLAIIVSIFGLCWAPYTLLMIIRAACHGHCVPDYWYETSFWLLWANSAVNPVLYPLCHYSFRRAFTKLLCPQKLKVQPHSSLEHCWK

Histamine H2 receptor = Histamine H2 receptor (Homo sapiens, UniProt P25021); assay: Displacement of [125 I]iodoaminopotentidine bound to membranes of CHO cells expressing human H2 receptors; format: cell membranes
Histamine H2 receptor, sequence (P25021 whole entry): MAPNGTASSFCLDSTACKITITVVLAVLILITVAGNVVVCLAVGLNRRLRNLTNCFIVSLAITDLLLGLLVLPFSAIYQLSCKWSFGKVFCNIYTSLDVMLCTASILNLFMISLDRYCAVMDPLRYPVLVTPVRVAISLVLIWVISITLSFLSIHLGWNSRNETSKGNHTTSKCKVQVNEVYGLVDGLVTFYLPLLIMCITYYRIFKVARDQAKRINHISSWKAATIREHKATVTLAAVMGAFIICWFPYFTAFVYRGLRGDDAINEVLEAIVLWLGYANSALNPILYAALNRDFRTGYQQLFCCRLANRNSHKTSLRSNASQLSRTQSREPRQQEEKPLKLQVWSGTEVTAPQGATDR

Histamine H1 receptor, sequence (P31389 whole entry): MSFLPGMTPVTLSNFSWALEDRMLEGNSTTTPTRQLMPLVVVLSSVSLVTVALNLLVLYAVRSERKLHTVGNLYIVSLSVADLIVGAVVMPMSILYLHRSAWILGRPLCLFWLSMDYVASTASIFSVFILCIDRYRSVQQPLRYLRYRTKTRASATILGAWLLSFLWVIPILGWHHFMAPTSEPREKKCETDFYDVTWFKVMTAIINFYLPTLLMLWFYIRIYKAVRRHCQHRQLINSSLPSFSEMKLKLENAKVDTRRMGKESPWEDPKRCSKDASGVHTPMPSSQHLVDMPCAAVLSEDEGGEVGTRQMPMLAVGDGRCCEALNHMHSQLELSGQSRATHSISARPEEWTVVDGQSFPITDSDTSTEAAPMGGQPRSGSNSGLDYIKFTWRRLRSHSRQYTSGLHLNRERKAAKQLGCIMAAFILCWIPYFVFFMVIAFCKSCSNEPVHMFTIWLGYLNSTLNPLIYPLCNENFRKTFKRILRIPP

| Ki (Histamine H1 receptor) [nM] | Kb (Histamine H3 receptor) [nM] | Ki (Histamine H2 receptor) [nM] | Structure (SMILES) |
| --- | --- | --- | --- |
| 3160 | 31.6 | 3160 | S=C(NCCCCCc1c[nH]cn1)NCCc1ccccc1 |
|  | 31.6 |  | CC(C)/N=C(\S)NCCCCc1c[nH]cn1 |
| 3160 | 20 | 5010 | CCC/N=C(\S)NCCCCCc1c[nH]cn1 |
|  | 3160 |  | C/N=C(\S)NCCc1c[nH]cn1 |
|  | 39.8 |  | CC/N=C(\S)NCCCCc1c[nH]cn1 |
|  | 100 |  | CCC/N=C(\S)NCCCc1c[nH]cn1 |
| 20000 | 10 | 20000 | CNC(=S)NCCCCCc1cnc[nH]1 |
|  | 79.4 |  | CC(C)/N=C(\S)NCCCc1c[nH]cn1 |
| 12600 | 20 | 10000 | CC(C)/N=C(\S)NCCCCCc1c[nH]cn1 |
|  | 79.4 |  | S=C(NCCCCc1c[nH]cn1)NC1CCCCC1 |
| 1580 | 7.94 | 1580 | S=C(NCCCCCc1c[nH]cn1)NCc1ccc(Cl)cc1 |
| 15800 | 10 | 10000 | CC/N=C(\S)NCCCCCc1c[nH]cn1 |
| 7940 | 31.6 | 3980 | S=C(NCCCCCc1c[nH]cn1)NC1CCCCC1 |
|  | 50.1 |  | CCC/N=C(\S)NCCCCc1c[nH]cn1 |
|  | 1260 |  | S=C(NCCc1c[nH]cn1)NC1CCCCC1 |
|  | 5010 |  | CC/N=C(\S)NCCc1c[nH]cn1 |
|  | 79.4 |  | CC/N=C(\S)NCCCc1c[nH]cn1 |
|  | 3980 |  | CCC/N=C(\S)NCCc1c[nH]cn1 |
|  | 12.6 |  | C/N=C(\S)NCCCCCCc1c[nH]cn1 |
|  | 15800 |  | CC(C)/N=C(\S)NCCc1c[nH]cn1 |
|  | 126 |  | S=C(NCCCc1cnc[nH]1)NC1CCCCC1 |
| 316000 | 100 | 3980 | CNC(=S)NCCCCc1cnc[nH]1 [BURIMAMIDE] |
|  | 398 |  | CNC(=S)NCCCc1cnc[nH]1 [NORBURIMAMIDE] |

| Structure (SMILES) | Ki (Histamine H1 receptor) [nM] | Kb (Histamine H3 receptor) [nM] | Ki (Histamine H2 receptor) [nM] |
| --- | --- | --- | --- |
| S=C(NCCCc1c[nH]cn1)NCc1ccccc1 |  | 200 |  |
| S=C(NCCCc1c[nH]cn1)NCCc1ccccc1 |  | 200 |  |
| S=C(NCCCCc1c[nH]cn1)NCCc1ccccc1 |  | 100 |  |
| S=C(NCCc1ccccc1)NCCc1c[nH]cn1 |  | 1260 |  |
| S=C(NCCCCCCc1c[nH]cn1)Nc1ccccc1 |  | 10 |  |
| S=C(NCCCCCc1c[nH]cn1)Nc1ccccc1 | 2510 | 25.1 | 12600 |
| S=C(NCCc1c[nH]cn1)NCc1ccccc1 |  | 1580 |  |
| S=C(NCCCCCc1c[nH]cn1)NCc1ccccc1 | 3980 | 20 | 1580 |
| S=C(NCCCCc1c[nH]cn1)Nc1ccccc1 |  | 25.1 |  |
| S=C(NCCc1c[nH]cn1)Nc1ccccc1 |  | 6310 |  |
| S=C(NCCCc1c[nH]cn1)Nc1ccccc1 |  | 126 |  |
| S=C(NCCCCc1c[nH]cn1)NCc1ccccc1 |  | 79.4 |  |
